The results in this text go back to US20110263647A1 (AMGEN INC., priority 2009, published 2011).

Where a name gives a salt, the structure may show the parent alone.

T1 sequence (P31749 118-472 limits assumed): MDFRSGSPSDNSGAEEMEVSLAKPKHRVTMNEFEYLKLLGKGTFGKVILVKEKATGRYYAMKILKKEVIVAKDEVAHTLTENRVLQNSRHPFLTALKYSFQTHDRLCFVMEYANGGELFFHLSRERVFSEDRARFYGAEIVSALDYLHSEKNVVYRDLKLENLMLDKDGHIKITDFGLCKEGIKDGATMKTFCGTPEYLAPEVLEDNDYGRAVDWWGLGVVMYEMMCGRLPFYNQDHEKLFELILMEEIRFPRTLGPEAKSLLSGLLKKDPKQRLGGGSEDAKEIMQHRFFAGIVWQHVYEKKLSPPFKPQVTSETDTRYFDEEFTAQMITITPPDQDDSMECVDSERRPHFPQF

Test system in one series: not listed separately
Nature of the series: In vivo pharmacokinetics, IV and oral gavage. Further details: species or system male Sprague-Dawley rats. The following applies: male, Sprague-Dawley, plasma; rat, IV 0.5 mg/kg. As for the experimental part:
In vivo pharmacokinetic parameters were determined by measuring systemic plasma exposure in male Sprague-Dawley rats (Charles River Laboratories or Taconic, Oxnard, Calif.) by intravenous administration (N=3 fed rats: 2 mg/kg tail vein injection in DMSO) and oral gavage (N=3 fasted rats: 5 mg/kg in 1% Tween 80-2% HPMC-97% deionized water-pH 2.0 vehicle) (Comparative Example 18′ was only dosed IV and at 0.5 mg/kg). DMSO was obtained from Mallinckrodt Inc.; Tween 80 was obtained from Croda; HPMC is Methocel E50 Premium LV, obtained from Dow Excipients. Following oral administration, blood was drawn (250 μL) at 0.25, 0.5, 1, 2, 4, 6, 8, 12, and 16 hours. Following iv administration, blood was drawn (250 μL) at 0.083, 0.25, 0.5, 1, 2, 4, 6, 8, and 16 hours. Blood samples were drawn using a Culex® In Vivo Sampling System (BASi) and collected in BD Microtainer® tubes containing Lithium Heparin (BD). Plasma was obtained by centrifugation of blood at 14000 g and 2-8° C. for five minutes using an Eppendorf 5417R Centrifuge System. Plasma samples were mixed with 2× volume of acetonitrile (Sigma-Aldrich, St. Louis, Mo.). The mixture was stirred briefly using a vortex mixer and then centrifuged at 2867 g for 5 minutes in a Beckman Coulter Allegra 25R equipped with a Type S5700 rotor. The supernatant was removed and diluted 2× with mobile phase A (5/94.9/0.1 v/v/v MeOH/water/AcOH). Plasma concentrations were determined using liquid chromatography/tandem mass spectrometry, with electrospray ionization (ESI) and multiple reaction monitoring in the positive ion mode (Sciex API 3000 mass spectrometer connected to a Shimadzu LC-20AD pump and a LEAP PAL autosampler. Typical conditions used for HPLC were: mobile phase A=5/94.9/0.1 v/v/v MeOH/water/AcOH and mobile phase B=95/4.9/0.1 v/v/v MeOH/water/AcOH; HPLC column was a Varian MonoChrom C18.3μ for 2×30 mm and 51.1 for 2×50 mm) Instrument response was calibrated by a standard curve over 0.1-2000 ng/mL concentration range, and the lower limit of quantitation was 0.1-2.5 ng/mL. Peak areas were integrated on a Windows 2000 computer using the Sciex program Analyst® (Version 1.4.1). Following peak area integration, the data were exported to the software package (Watson® Non-GLP PROD (Version 7.0.0.01, Thermo Electron Corp., Waltham, Mass.)), where concentrations were determined by a weighted linear regression of peak area versus the nominal concentrations of the calibration standards. Calculations were performed on unrounded numbers. The Watson® Non-GLP PROD software was used to determine precision and accuracy for the calibration standards. Noncompartmental analysis of plasma concentration data was used to generate PK parameters such as clearance (CL, L/h/kg), volume of distribution (Vss, L/kg), area under the curve (AUC, ng·h/mL) and secondary parameters such as half-life (t1/2, h) and oral bioavailability (% F, %). This was done using WinNonlin Enterprise software (Version 5.1.1, from Pharsight Corp., Mountain View, Calif.). References for pharmacokinetic analysis include: Gabrielsson and Weiner (1997) Pharmacokinetic and Pharmacodynamic Data Analysis Concepts and Applications, 2nd ed., Swedish Pharmaceutical Press, Stockholm; Gibaldi and Perrier (1982) Pharmacokinetics, 2nd ed., Marcel Dekker, New York. Rowland and Tozer (1995) Clinical Pharmacokinetics: Concepts and Applications, 3rd ed., Lippincott Williams & Wilkins, Philadelphia.
`COCc1nc(NC[C@@H](N)Cc2ccc(C(F)(F)F)nc2)sc1-c1ccc2cnccc2c1` [Comparative Example 18′, (S)—N-1-(5-(Isoquinolin-6-yl)-4-(methoxymethyl)thiazol-2-yl)-3-(6-(trifluoromethyl)pyridin-3-yl)propane-1,2-diamine, reference compound] had a clearance of 14.2 L/h/kg.

Staying with this series, now noted: male, Sprague-Dawley, plasma; rat, IV 0.5 mg/kg; read-out: IV AUClast.
On to `COCc1nc(NC[C@@H](N)Cc2ccc(C(F)(F)F)nc2)sc1-c1ccc2cnccc2c1` [Comparative Example 18′, (S)—N-1-(5-(Isoquinolin-6-yl)-4-(methoxymethyl)thiazol-2-yl)-3-(6-(trifluoromethyl)pyridin-3-yl)propane-1,2-diamine, reference compound], for which the AUC(0-t) was determined as 0.033 µg·h/mL.

Staying with this series, now noted: male, Sprague-Dawley, plasma; rat, IV 0.5 mg/kg; read-out: IV Cmax.
For the molecule `COCc1nc(NC[C@@H](N)Cc2ccc(C(F)(F)F)nc2)sc1-c1ccc2cnccc2c1` [Comparative Example 18′, (S)—N-1-(5-(Isoquinolin-6-yl)-4-(methoxymethyl)thiazol-2-yl)-3-(6-(trifluoromethyl)pyridin-3-yl)propane-1,2-diamine, reference compound], the Cmax – broadly, the peak of the concentration-time curve – worked out at 0.073 µg/mL.

Still in this series, the particulars now being: male, Sprague-Dawley, plasma; rat, IV 0.5 mg/kg; read-out: Vss.
Regarding `COCc1nc(NC[C@@H](N)Cc2ccc(C(F)(F)F)nc2)sc1-c1ccc2cnccc2c1` [Comparative Example 18′, (S)—N-1-(5-(Isoquinolin-6-yl)-4-(methoxymethyl)thiazol-2-yl)-3-(6-(trifluoromethyl)pyridin-3-yl)propane-1,2-diamine, reference compound], the Vd was 6.44 L/kg.

The next series has as its target T1, PKBα (Homo sapiens, UniProt P31749).
T1 construct: fused on or other part: His6 tag is likely on the Upstate products
Kind of series: PKB kinase assay (P33-labeled ATP, peptide substrate, filter plate). In kind it is biochemical. The following applies: with respect to PKBα. From the text:
The kinase assay for evaluating PKB activity comprises active PKB enzymes, a PKB specific substrate, and P^33-labeled ATP. Two form of PKBα enzymes were used, the full length PKBα and a kinase domain of PKBα with pleckstrin domain (amino acids 1-117) deleted. Both PKB enzymes were obtained from Upstate cell signaling solutions (Cat.# 14-276 and 14-341). The PKB substrate used is a synthetic peptide (ARKRERTYSFGHHA (SEQ ID NO: 1)) as described in Obata et al., J. Biol. Chem. 275 (46), 36108-36115 (2000). The phosphorylated substrate was captured by a phosphocellulose membrane filter plate (MILLIPORE) and measured by a Wallac Microbeta liquid scintillation counter (Perkin Elmer). Table 1 provides the IC50 values obtained for each of the examples with respect to PKBα.
As for `NC(CCc1nc(CO)c(-c2ccc3cnc(F)cc3c2)s1)Cc1ccc(C(F)(F)F)cc1` (racemic) [Example 51, (±)-(2-(3-Amino-4-(4-(trifluoromethyl)phenyl)butyl)-5-(3-fluoroisoquinolin-6-yl)thiazol-4-yl)methanol], the IC50 (as a rule, the concentration needed to halve the response being measured) fell in the range of 0.05 to 1 µM.

Take `COCc1nc(NCC(N)[C@@H](C)c2ccc(C(F)(F)F)cc2)sc1-c1ccc2cnc(F)cc2c1` (stereo in doubt) [Example 27, N-((2R,3S)-2-Amino-3-(4-(trifluoromethyl)phenyl)butyl)-5-(3-fluoroisoquinolin-6-yl)-4-(methoxymethyl)thiazol-2-amine]: the IC50 is under 0.05 µM.

In turn, `NC(CNc1ncc(-c2ccc3cnc(F)cc3c2)s1)Cn1ccc(C(F)(F)F)n1` (stereo in doubt) [Example 29, N—((S)-2-Amino-3-(3-(trifluoromethyl)-1H-pyrazol-1-yl)propyl)-5-(3-fluoroisoquinolin-6-yl)thiazol-2-amine] displayed a 50% inhibitory concentration (IC50) of 0.05 to 1 µM.

For the molecule `CC(C)(C)OC(=O)N[C@@H](Cc1ccc(C(F)(F)F)nc1)CN(C(=O)OC(C)(C)C)c1ncc(-c2ccc3cnc(F)cc3c2)s1` [Example 1, tert-Butyl ((2S)-2-((tert-butoxycarbonyl)amino)-3-(6-(trifluoromethyl)-3-pyridinyl)propyl)(5-(3-fluoro-6-isoquinolinyl)-1,3-thiazol-2-yl)carbamate], the IC50 lay within 1 to 10 µM.

`CC(F)(F)c1ccc(C[C@H](N)CNc2ncc(-c3ccc4cnc(F)cc4c3)s2)cc1` [Example 3, N—((S)-2-Amino-3-(4-(1,1-difluoroethyl)phenyl)propyl)-5-(3-fluoroisoquinolin-6-yl)thiazol-2-amine] had an IC50 of under 0.05 µM.

Regarding `N[C@H](CNc1ncc(-c2ccc3cnc(F)cc3c2)s1)Cc1ccc(Cl)cc1` [Example 5, N—((S)-2-Amino-3-(4-chlorophenyl)propyl)-5-(3-fluoroisoquinolin-6-yl)thiazol-2-amine], the half-inhibitory concentration (IC50) was under 0.05 µM.

`COCc1nc(NC[C@@H](N)Cc2ccc(C(C)(F)F)nc2)sc1-c1ccc2cnc(F)cc2c1` [Example 6, N—((S)-2-Amino-3-(6-(1,1-difluoroethyl)pyridin-3-yl)propyl)-5-(3-fluoroisoquinolin-6-yl-4-(methoxymethyl)thiazol-2-amine trifluoroacetate] yielded an IC50 of under 0.05 µM.

The molecule `COC(=O)c1nc(NC[C@@H](N)Cc2ccc(C(C)(F)F)nc2)sc1-c1ccc2cnc(F)cc2c1` [Example 8, Methyl 2-((S)-2-amino-3-(6-(1,1-difluoroethyl)pyridin-3-yl)propylamino)-5-(3-fluoroisoquinolin-6-yl)thiazole-4-carboxylate] displayed a half-inhibitory concentration (IC50) of under 0.05 µM.

`CC(F)(F)c1ccc(C[C@H](N)CNc2nc(CO)c(-c3ccc4cnc(F)cc4c3)s2)cn1` [Example 9, (2-((S)-2-Amino-3-(6-(1,1-difluoroethyl)pyridin-3-yl)propylamino)-5-(3-fluoroisoquinolin-6-yl)thiazol-4-yl)methanol] registered an IC50 of under 0.05 µM.

`COC(=O)c1nc(NC[C@@H](N)[C@@H](C)c2ccc(C(F)(F)F)nc2)sc1-c1ccc2cnc(F)cc2c1` [Example 11, Methyl 2-((2S,3S)-2-amino-3-(6-(trifluoromethyl)pyridin-3-yl)butylamino)-5-(3-fluoroisoquinolin-6-yl)thiazole-4-carboxylate]: the IC50 lay within 0.05 to 1 µM.

`C[C@@H](c1ccc(C(F)(F)F)nc1)[C@H](N)CNc1nc(CO)c(-c2ccc3cnc(F)cc3c2)s1` [Example 12, (2-((2S,3S)-2-Amino-3-(6-(trifluoromethyl)pyridin-3-yl)butylamino)-5-(3-fluoroisoquinolin-6-yl)thiazol-4-yl)methanol] showed a half-inhibitory concentration (IC50) of under 0.05 µM.

In turn, `COCc1nc(NC[C@@H](N)[C@@H](C)c2ccc(C(F)(F)F)nc2)sc1-c1ccc2cnc(F)cc2c1` [Example 13, N-((2S,3S)-2-Amino-3-(6-(trifluoromethyl)pyridin-3-yl)butyl)-5-(3-fluoroisoquinolin-6-yl)-4-(methoxymethyl)thiazol-2-amine] gave a half-maximal inhibitory concentration (IC50) of under 0.05 µM.

`N[C@H](CNc1ncc(-c2ccc3cnc(F)cc3c2)s1)Cc1ccc(Cl)c(Cl)c1` [Example 14, N—((S)-2-amino-3-(3,4-dichlorophenyl)propyl)-5-(3-fluoroisoquinolin-6-yl)thiazol-2-amine] came in with an IC50 of under 0.05 µM.

`COC(=O)c1nc(NC[C@@H](N)Cc2ccc(C(F)(F)F)nc2)sc1-c1ccc2cnc(F)cc2c1` [Example 15, Methyl 2-((S)-2-amino-3-(6-(trifluoromethyl)pyridin-3-yl)propylamino)-5-(3-fluoroisoquinolin-6-yl)thiazole-4-carboxylate]: the 50% inhibitory concentration (IC50) is under 0.05 µM.

`N[C@H](CNc1nc(CO)c(-c2ccc3cnc(F)cc3c2)s1)Cc1ccc(C(F)(F)F)nc1` [Example 16, (2-((S)-2-Amino-3-(6-(trifluoromethyl)pyridin-3-yl)propylamino)-5-(3-fluoroisoquinolin-6-yl)thiazol-4-yl)methanol] showed an IC50 of under 0.05 µM.

`CNC(=O)c1nc(NC[C@@H](N)Cc2ccc(C(F)(F)F)nc2)sc1-c1ccc2cnc(F)cc2c1` [Example 17]: the IC50 was 0.05 to 1 µM.

As for `COCc1nc(NC[C@H](N)Cc2ccc(C(F)(F)F)nc2)sc1-c1ccc2cnc(F)cc2c1` [Example 19, N—((R)-2-Amino-3-(6-(trifluoromethyl)pyridin-3-yl)propyl)-5-(3-fluoroisoquinolin-6-yl)-4-(methoxymethyl)thiazol-2-amine], the concentration for half-maximal inhibition (IC50) is 1 to 10 µM.

`COC(=O)c1nc(NC[C@@H](N)Cc2ccc(C(F)(F)F)cc2)sc1-c1ccc2cnc(F)cc2c1` [Example 20, Methyl 2-((S)-2-amino-3-(4-(trifluoromethyl)phenyl)propylamino)-5-(3-fluoroisoquinolin-6-yl)thiazole-4-carboxylate] yielded a 50% inhibitory concentration (IC50) of under 0.05 µM.

`N[C@H](CNc1nc(CO)c(-c2ccc3cnc(F)cc3c2)s1)Cc1ccc(C(F)(F)F)cc1` [Example 21, (2-((S)-2-Amino-3-(4-(trifluoromethyl)phenyl)propylamino)-5-(3-fluoroisoquinolin-6-yl)thiazol-4-yl)methanol] registered an IC50 of under 0.05 µM.

With `CNC(=O)c1nc(NC[C@@H](N)Cc2ccc(C(F)(F)F)cc2)sc1-c1ccc2cnc(F)cc2c1` [Example 22, 2-((S)-2-Amino-3-(4-(trifluoromethyl)phenyl)propylamino)-5-(3-fluoroisoquinolin-6-yl)-N-methylthiazole-4-carboxamide trifluoroacetate], the IC50 was 0.05 to 1 µM.
